The EC50 is the concentration giving half of the maximal effect.

The target of this assay is T1, HA-S170A/D190A CaSR mutant (Rattus norvegicus, UniProt P48442, D190A/S170A).
T1 construct: mGluR5 signal peptide (N); expressed in transfected cells; host or cells: HEK293T
T1 sequence (P48442 20-1079 S170A/D190A): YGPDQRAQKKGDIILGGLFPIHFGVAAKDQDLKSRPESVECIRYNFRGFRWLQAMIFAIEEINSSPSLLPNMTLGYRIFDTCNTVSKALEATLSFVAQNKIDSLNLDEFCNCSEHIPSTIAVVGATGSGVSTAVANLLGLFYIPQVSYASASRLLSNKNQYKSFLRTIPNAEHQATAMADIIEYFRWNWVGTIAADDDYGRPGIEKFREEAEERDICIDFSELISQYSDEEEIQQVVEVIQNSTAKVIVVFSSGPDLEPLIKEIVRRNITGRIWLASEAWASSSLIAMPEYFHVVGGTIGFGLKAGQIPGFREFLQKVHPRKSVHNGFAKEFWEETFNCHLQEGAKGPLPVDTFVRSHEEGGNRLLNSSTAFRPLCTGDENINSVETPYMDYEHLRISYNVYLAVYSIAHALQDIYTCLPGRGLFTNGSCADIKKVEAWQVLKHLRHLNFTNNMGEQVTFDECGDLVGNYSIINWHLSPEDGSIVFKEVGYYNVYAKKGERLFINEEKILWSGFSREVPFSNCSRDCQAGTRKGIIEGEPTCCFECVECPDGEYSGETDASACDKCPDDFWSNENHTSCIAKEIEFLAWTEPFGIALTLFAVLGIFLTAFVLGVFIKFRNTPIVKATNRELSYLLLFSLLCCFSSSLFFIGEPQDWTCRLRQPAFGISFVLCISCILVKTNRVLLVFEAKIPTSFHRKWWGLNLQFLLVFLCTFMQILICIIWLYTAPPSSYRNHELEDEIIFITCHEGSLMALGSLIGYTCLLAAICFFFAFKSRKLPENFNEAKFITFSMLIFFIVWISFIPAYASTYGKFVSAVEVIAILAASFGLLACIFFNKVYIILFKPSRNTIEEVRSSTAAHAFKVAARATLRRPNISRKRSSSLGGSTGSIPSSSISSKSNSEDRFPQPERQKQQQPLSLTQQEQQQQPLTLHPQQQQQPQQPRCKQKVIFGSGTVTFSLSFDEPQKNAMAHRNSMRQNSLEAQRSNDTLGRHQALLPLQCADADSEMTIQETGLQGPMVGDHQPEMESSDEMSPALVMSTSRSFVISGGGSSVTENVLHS
The experiment in a line: IP-One assay, HEK293T transiently transfected. In kind it is cell-based.

Consider `[Ca+2]` [Ca^2+], for which, where the note is “Ca^2+ alone”, the EC50 is 31.8 mM, the “Hill coefficient ± S.E.M.” value is given as 4.05 ± 0.43 and the “pEC50 ± S.E.M.” value is listed as 1.50 ± 0.04. For the setting “normalized to maximum response of WT CaSR”, the “Max ± S.E.M.” value is 49 ± 2.5%.

The values above are taken from PMC5394417, “Investigating the molecular mechanism of positive and negative allosteric modulators in the calcium-sensing receptor dimer” (Scientific Reports, 2017).
